Experimental findings from ChEMBL document CHEMBL5723379, “Affinity On-target Cellular Literature for EUbOPEN Chemogenomic Library” (2024) are described below.

In assay [1] the target is T1, Nuclear receptor subfamily 1 group I member 2 (Homo sapiens, UniProt O75469). The experiment in a line: Affinity On-target Cellular interaction: (Reporter gene assay (HEK293T cells)) EUB0002358a NR1I2. It counts as functional, cell-based, HEK-293T. Details: mode of action Agonist, recommended concentration 10 uM.
T1 sequence (O75469 whole entry): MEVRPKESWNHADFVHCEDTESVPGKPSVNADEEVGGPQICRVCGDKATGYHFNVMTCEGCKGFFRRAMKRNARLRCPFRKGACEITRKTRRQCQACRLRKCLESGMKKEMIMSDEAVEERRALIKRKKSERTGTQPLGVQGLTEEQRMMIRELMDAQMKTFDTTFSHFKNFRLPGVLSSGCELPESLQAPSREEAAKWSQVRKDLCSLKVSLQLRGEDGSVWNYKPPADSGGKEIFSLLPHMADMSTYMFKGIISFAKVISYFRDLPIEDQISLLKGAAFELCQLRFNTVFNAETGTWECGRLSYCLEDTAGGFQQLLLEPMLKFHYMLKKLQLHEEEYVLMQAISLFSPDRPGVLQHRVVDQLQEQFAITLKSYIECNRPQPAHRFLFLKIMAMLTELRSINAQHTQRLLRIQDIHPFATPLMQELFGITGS
The target of assay [2] is T2, Nuclear receptor subfamily 1 group D member 2 (Homo sapiens, UniProt Q14995). Description: Affinity On-target Cellular interaction: (Reporter gene assay (HEK293T cells)) EUB0001155a NR1D2. Details: mode of action Agonist, recommended concentration 10 uM. It counts as functional, cell-based, HEK-293T. (In general: A reporter such as luciferase makes a cellular process visible.)
T2 sequence (Q14995 whole entry): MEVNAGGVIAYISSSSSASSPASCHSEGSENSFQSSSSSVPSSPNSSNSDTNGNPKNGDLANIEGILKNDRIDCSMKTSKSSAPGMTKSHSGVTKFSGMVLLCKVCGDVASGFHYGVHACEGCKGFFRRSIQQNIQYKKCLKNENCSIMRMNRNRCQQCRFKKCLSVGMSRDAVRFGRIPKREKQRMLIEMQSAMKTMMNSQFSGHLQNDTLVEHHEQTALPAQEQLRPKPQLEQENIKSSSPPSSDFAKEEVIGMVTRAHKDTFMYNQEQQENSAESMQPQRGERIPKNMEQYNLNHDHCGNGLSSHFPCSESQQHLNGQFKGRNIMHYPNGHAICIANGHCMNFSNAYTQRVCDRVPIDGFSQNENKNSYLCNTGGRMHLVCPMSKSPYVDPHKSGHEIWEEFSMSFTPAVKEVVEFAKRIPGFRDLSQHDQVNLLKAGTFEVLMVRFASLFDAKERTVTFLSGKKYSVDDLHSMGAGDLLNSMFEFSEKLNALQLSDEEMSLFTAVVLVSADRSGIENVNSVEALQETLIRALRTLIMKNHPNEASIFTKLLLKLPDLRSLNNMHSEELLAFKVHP

Assay [3] addresses T3, Nuclear receptor subfamily 1 group D member 1 (Homo sapiens, UniProt P20393). The experiment in a line: Affinity On-target Cellular interaction: (Reporter gene assay (HEK293T cells)) EUB0001155a NR1D1. Details: mode of action Agonist, recommended concentration 10 uM. It counts as functional, cell-based, HEK-293T.
For assay [4], the target named is T4, Oxysterols receptor LXR-beta (Homo sapiens, UniProt P55055).
T4 sequence (P55055 whole entry): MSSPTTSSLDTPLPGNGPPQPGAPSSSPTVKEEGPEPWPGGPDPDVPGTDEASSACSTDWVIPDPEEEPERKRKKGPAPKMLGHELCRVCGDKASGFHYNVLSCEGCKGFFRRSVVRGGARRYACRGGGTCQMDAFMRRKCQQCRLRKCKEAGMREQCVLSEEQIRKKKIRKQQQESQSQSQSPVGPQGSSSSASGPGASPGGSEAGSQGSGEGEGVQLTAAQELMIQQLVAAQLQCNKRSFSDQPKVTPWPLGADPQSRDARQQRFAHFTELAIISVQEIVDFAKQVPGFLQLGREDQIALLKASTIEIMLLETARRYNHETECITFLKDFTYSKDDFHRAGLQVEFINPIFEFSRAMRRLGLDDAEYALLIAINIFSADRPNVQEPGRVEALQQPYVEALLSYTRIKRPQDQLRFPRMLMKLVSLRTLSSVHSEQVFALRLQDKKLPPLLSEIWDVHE
Description: Affinity On-target Cellular interaction: (Reporter gene assay (HEK293T cells)) EUB0001167a NR1H2. Type of assay: functional, cell-based, HEK-293T. Details: mode of action Agonist, recommended concentration 1 uM.

In assay [5] the target is T2, Nuclear receptor subfamily 1 group D member 2. Description: Affinity On-target Cellular interaction: (Reporter gene assay (HEK293T cells)) EUB0001152a NR1D2. It counts as functional, cell-based, HEK-293T. Details: mode of action Agonist, recommended concentration 10 uM.
Assay [6] has as its target T3, Nuclear receptor subfamily 1 group D member 1. The experiment in a line: Affinity On-target Cellular interaction: (Reporter gene assay (HEK293T cells)) EUB0001153a NR1D1. Type of assay: functional, cell-based, HEK-293T. Details: mode of action Antagonist, recommended concentration 10 uM.
The target in assay [7] is T1, Nuclear receptor subfamily 1 group I member 2. Description: Affinity On-target Cellular interaction: (Reporter gene assay (HEK293T cells)) EUB0002359a NR1I2. It counts as functional, cell-based, HEK-293T. More on the design: mode of action Agonist, recommended concentration 1 uM.
The target of assay [8] is Thyroid hormone receptor beta (Homo sapiens, UniProt P10828). Description: Affinity On-target Cellular interaction: (Reporter gene assay (HEK293T cells)) EUB0002355a THRB. More on the design: mode of action Antagonist, recommended concentration 3 uM. Type of assay: functional, cell-based, HEK-293T.
Sequence of Thyroid hormone receptor beta (P10828 whole entry): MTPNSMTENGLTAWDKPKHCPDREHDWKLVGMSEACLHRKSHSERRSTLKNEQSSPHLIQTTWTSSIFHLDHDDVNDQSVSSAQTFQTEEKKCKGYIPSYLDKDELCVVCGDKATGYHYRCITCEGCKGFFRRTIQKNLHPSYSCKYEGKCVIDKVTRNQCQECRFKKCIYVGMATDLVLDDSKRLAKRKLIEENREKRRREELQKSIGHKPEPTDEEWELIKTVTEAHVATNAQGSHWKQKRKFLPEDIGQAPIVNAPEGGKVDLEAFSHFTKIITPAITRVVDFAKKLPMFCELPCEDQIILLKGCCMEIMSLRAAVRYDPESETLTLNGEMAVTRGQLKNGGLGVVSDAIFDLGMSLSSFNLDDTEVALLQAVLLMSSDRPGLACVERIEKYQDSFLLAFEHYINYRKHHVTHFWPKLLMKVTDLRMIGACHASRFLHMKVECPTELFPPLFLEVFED
Assay [9] deals with T5, Oxysterols receptor LXR-alpha (Homo sapiens, UniProt Q13133).
T5 sequence (Q13133 whole entry): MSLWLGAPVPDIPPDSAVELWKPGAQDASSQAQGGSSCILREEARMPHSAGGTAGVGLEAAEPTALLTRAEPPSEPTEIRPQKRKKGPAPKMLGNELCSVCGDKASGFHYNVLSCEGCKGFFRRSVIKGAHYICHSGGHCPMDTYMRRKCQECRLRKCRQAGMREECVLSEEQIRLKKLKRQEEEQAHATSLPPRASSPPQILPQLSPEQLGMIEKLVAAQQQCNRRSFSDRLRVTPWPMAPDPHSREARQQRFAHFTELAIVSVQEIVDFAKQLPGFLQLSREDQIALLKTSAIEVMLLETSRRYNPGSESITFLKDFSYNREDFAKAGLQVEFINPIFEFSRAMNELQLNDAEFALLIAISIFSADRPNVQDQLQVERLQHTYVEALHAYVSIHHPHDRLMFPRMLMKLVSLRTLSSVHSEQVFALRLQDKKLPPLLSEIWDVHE
Description: Affinity On-target Cellular interaction: (Reporter gene assay (HEK293T cells)) EUB0001482aCl NR1H3. It counts as functional, cell-based, HEK-293T. More on the design: mode of action Agonist, recommended concentration 10 uM.

In assay [10] the target is T4, Oxysterols receptor LXR-beta. Description: Affinity On-target Cellular interaction: (Reporter gene assay (HEK293T cells)) EUB0001482aCl NR1H2. Type of assay: functional, cell-based, HEK-293T. Details: mode of action Agonist, recommended concentration 10 uM.
Assay [11] concerns the target Sodium- and chloride-dependent glycine transporter 1 (Homo sapiens, UniProt P48067). Description: Affinity On-target Cellular interaction: (Inhibition of radiolabelled [3H]glycine uptake in human SK-N-MC cells) EUB0002599a SLC6A9. Type of assay: functional, cell-based. More on the design: mode of action Inhibitor, recommended concentration 1 uM.
For assay [12], the target named is T5, Oxysterols receptor LXR-alpha. The experiment in a line: Affinity On-target Cellular interaction: (Reporter gene assay (HEK293T cells)) EUB0001166a NR1H3. Type of assay: functional, cell-based, HEK-293T. Details: mode of action Agonist, recommended concentration 1 uM.
For assay [13], the target named is T4, Oxysterols receptor LXR-beta. Description: Affinity On-target Cellular interaction: (Reporter gene assay (HEK293T cells)) EUB0001166a NR1H2. More on the design: mode of action Agonist, recommended concentration 1 uM. It counts as functional, cell-based, HEK-293T.
In assay [14] the target is Bile acid receptor (Homo sapiens, UniProt Q96RI1). The experiment in a line: Affinity On-target Cellular interaction: (Reporter gene assay (HEK293T cells)) EUB0001168a NR1H4. Type of assay: functional, cell-based, HEK-293T. More on the design: mode of action Agonist, recommended concentration 1 uM.
Sequence of Bile acid receptor (Q96RI1 whole entry): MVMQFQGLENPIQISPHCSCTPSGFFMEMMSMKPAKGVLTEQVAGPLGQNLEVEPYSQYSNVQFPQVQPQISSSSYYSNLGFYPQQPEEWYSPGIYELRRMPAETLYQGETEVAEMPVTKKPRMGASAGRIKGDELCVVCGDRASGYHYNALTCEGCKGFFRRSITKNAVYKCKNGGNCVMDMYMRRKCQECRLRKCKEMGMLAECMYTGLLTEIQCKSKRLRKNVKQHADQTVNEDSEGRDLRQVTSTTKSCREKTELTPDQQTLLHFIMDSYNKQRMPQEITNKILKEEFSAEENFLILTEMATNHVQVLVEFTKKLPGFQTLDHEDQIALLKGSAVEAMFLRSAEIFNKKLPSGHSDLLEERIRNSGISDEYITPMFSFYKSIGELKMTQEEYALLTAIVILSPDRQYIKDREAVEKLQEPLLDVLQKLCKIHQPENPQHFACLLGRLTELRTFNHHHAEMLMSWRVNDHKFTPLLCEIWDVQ

A word on the EC50: it is the concentration that produces a half-maximal response. Higher therefore signals a less potent agent. For orientation: IC50 means the point on the concentration scale where inhibition reaches its midpoint. Low readings indicate higher potency, high ones lower potency.

T3 sequence (P20393 whole entry): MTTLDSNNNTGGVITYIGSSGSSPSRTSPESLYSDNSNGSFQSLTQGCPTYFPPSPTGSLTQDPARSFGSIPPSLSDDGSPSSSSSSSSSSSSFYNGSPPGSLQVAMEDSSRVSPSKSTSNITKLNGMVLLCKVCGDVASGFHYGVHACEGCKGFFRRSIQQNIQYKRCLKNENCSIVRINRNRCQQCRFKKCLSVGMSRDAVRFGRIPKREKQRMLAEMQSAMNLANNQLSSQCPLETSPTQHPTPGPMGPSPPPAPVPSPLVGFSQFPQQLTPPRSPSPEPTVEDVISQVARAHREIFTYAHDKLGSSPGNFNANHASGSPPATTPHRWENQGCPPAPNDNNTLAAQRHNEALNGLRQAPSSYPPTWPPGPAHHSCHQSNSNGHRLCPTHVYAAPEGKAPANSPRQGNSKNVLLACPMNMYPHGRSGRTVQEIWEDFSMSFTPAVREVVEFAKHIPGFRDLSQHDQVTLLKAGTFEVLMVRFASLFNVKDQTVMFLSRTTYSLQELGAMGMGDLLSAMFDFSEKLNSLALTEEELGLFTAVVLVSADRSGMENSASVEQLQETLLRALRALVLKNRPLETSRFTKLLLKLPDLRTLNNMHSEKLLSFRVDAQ
Sequence of Sodium- and chloride-dependent glycine transporter 1 (P48067 whole entry): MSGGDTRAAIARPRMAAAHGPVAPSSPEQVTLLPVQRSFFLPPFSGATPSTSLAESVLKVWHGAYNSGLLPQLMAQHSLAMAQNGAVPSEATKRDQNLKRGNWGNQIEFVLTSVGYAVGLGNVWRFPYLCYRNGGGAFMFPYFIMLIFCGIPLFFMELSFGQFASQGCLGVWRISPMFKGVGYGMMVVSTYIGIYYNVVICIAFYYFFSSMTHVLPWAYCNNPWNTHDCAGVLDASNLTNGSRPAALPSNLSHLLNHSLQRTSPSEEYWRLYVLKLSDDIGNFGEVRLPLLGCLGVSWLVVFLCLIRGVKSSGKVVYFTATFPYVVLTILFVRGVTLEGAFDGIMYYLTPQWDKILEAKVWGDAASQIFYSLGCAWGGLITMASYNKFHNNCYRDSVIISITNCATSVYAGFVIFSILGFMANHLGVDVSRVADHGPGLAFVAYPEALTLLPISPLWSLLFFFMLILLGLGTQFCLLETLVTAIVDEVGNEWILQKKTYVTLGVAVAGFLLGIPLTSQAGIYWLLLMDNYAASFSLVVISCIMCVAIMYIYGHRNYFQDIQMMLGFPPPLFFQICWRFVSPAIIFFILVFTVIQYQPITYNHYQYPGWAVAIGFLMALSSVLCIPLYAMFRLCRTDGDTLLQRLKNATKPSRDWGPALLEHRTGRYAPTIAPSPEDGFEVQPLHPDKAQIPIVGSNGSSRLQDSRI

In the case of `O=c1[nH]c2ccccc2n1CCCN1CCN(C(c2ccccc2)c2ccccc2)CC1` [OXATOMIDE], a half-maximal effect in assay [1] (EC50) was put at 6 µM.
On to `CCCCCNC(=O)N1CCC(CN(Cc2ccc(Cl)cc2)Cc2ccc([N+](=O)[O-])s2)C1` (centres undefined) [SR9011], for which the EC50 came to 3 µM in assay [2] and 2 µM in assay [3].
Molecule `CC(=O)Oc1ccc2c(c1)[C@@]1(C)CCC[C@](C)(C(=O)OC(=O)[C@@]3(C)CCC[C@]4(C)c5cc(OC(C)=O)ccc5CC[C@@H]34)[C@@H]1CC2` [ACETYL PODOCARPIC ACID ANHYDRIDE] gave an EC50 in assay [4] of 0.001 µM.
The molecule `CCOC(=O)N1CCC(CN(Cc2ccc(Cl)cc2)Cc2ccc([N+](=O)[O-])s2)C1` (centres undefined) [SR9009] had an EC50 in [5] of 11 µM.
Regarding `CCOC(=O)C1Cc2ccccc2CN1C(=O)c1ccc(SC)s1` (centres undefined), the IC50 in [6] was 0.47 µM.
`CC(C)c1c(CN(C)C(C)Cc2ccccc2)n(C)n(-c2ccccc2)c1=O` (centres undefined) [FAMPROFAZONE] returned an EC50 in assay [7] of 0.13 µM.
`Cc1oc2ccccc2c1Cc1cc(I)c(OCC(=O)O)c(I)c1` registered an IC50 in [8] of 2 µM.
Turning to `C[C@H](CCOc1cccc(CC(=O)O)c1)N(Cc1cccc(C(F)(F)F)c1Cl)CC(c1ccccc1)c1ccccc1`, the EC50 in assay [9] turned out to be 3.3 µM; in assay [10], 2.9 µM.
Turning to `C[C@@H](Oc1ccc(S(C)(=O)=O)cc1C(=O)N1C[C@@H]2C[C@]2(c2cc(C(F)(F)F)on2)C1)C(F)(F)F` [ICLEPERTIN], in [11], half-maximal inhibition (IC50) was put at 0.005 µM.
With `CC(C)(O)c1cn(-c2ccc(-c3cccc(S(C)(=O)=O)c3)cc2)c(C(C)(C)c2ccccc2Cl)n1` [BMS-779788], the EC50 in assay [12] is 0.2 µM; in assay [13], 0.3 µM.
In assay [14], `O=C(O)c1ccnc(N2CC(O)(c3ccc(OCc4c(-c5c(Cl)cccc5Cl)noc4C4CC4)cc3Cl)C2)c1` [CILOFEXOR] came in with an EC50 of 0.04 µM.
